In test [1] the target is JAK1 (recombinant purified GST-tagged catalytic domain) (Homo sapiens (Human), UniProt P23458). The experiment in a line: biochemical.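 Further: biochemical assay with HTRF read-out.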
Test [2] has as its target JAK2 (recombinant purified GST-tagged catalytic domain) (Homo sapiens (Human), UniProt O60674). The experiment in a line: biochemical.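 Further: biochemical JAK kinase assay with HTRF detection.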

Chain of JAK2 (recombinant purified GST-tagged catalytic domain) (O60674 849-1124): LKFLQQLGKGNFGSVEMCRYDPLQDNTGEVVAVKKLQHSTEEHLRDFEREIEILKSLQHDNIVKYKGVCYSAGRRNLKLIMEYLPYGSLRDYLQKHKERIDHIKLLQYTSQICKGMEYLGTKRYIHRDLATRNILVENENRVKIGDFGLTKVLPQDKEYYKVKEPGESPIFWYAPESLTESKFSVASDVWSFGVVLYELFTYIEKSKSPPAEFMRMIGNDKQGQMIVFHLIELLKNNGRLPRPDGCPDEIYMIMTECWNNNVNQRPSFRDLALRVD
Chain of JAK1 (recombinant purified GST-tagged catalytic domain) (P23458 875-1153): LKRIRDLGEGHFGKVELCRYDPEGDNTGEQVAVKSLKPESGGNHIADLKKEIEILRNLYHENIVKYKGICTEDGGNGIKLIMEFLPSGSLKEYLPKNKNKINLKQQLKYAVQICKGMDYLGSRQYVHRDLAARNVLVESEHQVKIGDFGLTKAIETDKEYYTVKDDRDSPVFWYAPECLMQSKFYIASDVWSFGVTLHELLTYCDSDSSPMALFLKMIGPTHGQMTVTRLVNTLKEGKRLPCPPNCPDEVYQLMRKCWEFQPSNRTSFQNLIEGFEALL

`N#C[C@H]1CC[C@H](O)CC1n1cc(C(N)=O)c(Nc2ccccc2)n1` (mixture of isomers) [Example 2-12, 1-[(1R,2R,5R and 1S,2S,5S)-2-cyano-5-hydroxycyclohexyl]-3-(phenylamino)-1H-pyrazole-4-carboxamide]: the IC50 (in general, the point on the concentration scale where inhibition reaches its midpoint) in test [1] amounted to 15 nM; in test [2], 79 nM.

Take `N#C[C@H]1CC[C@@H](O)CC1n1cc(C(N)=O)c(Nc2ccccc2)n1` (mixture of isomers) [Example 2-13, 1-[(1S,2S,5R and 1R,2R,5S)-2-cyano-5-hydroxycyclohexyl]-3-(phenylamino)-1H-pyrazole-4-carboxamide]: the IC50 in test [1] was 27 nM; in test [2] it was 185 nM.

Turning to `N#C[C@@H]1CC(CN)CCC1n1cc(C(N)=O)c(Nc2ccc(F)cc2)n1` (mixture of isomers) [Example 9, 1-((1R,2R and 1S,2S)-4-(Aminomethyl)-2-cyanocyclohexyl)-3-((4-fluorophenyl)amino)-1H-pyrazole-4-carboxamide], the IC50 was found to be 12 nM in test [1] and 247 nM in test [2].

Turning to `CN(C)CC1CCC(n2cc(C(N)=O)c(Nc3ccc(F)cc3)n2)[C@H](C#N)C1` (mixture of isomers) [Example 10, 1-((1R,2R and 1S,2S)-2-Cyano-4-((dimethylamino)methyl)cyclohexyl)-3-((4-fluorophenyl)amino)-1H-pyrazole-4-carboxamide], the IC50 was 11 nM in test [1] and 357 nM in test [2].

As to `N#C[C@H]1C[C@H](O)CCC1n1cc(C(N)=O)c(Nc2ccc(S(=O)(=O)C(F)F)cc2)n1` (mixture of isomers) [Example 14, 1-[(1S,2S,4R and 1R,2R,4S)-2-Cyano-4-hydroxycyclohexyl]-3-({4-[(difluoromethyl)sulfonyl]phenyl}amino)-1H-pyrazole-4-carboxamide], the results for the IC50 in test [1] and in test [2] were 0.32 nM and 3 nM, respectively.

Consider `N#C[C@H]1CCCC[C@@H]1n1cc(C(N)=O)c(Nc2ccnc(C(F)(F)F)c2)n1` (racemic) [Example 17-3, 1-[(1S,2S and 1R,2R)-2-Cyanocyclohexyl]-3-{[2-(trifluoromethyl)pyridin-4-yl]amino}-1H-pyrazole-4-carboxamide], for which the IC50 in test [1] worked out at 19 nM; in test [2] it was 123 nM.

In the case of `N#Cc1ccc(Nc2nn([C@H]3CCCC[C@@H]3C#N)cc2C(N)=O)cc1` (racemic) [Example 17-5, 1-[(1S,2S and 1R,2R)-2-cyanocyclohexyl]-3-[(4-cyanophenyl)amino]-1H-pyrazole-4-carboxamide], the IC50 is 1 nM in test [1] and 9 nM in test [2].

Turning to `Cc1noc(-c2ccc(Nc3nn([C@H]4CCCC[C@@H]4C#N)cc3C(N)=O)cc2)n1` (racemic) [Example 17-6, 1-[(1S,2S and 1R,2S)-2-cyanocyclohexyl]-3-{[4-(3-methyl-1,2,4-oxadiazol-5-yl)phenyl]amino}-1H-pyrazole-4-carboxamide], the IC50 in test [1] came out at 4 nM; in test [2] it was 25 nM.

As to `N#C[C@H]1CCCCC1n1cc(C(N)=O)c(Nc2ccc3c(c2)CCC(=O)N3)n1` (mixture of isomers) [Example 17-11, 1-[(1S,2S and 1R,2R)-2-cyanocyclohexyl]-3-[(2-oxo-1,2,3,4-tetrahydroquinolin-6-yl)amino]-1H-pyrazole-4-carboxamide], the figures for the concentration for half-maximal inhibition (IC50) in test [1] and in test [2] were 2 nM and 8 nM, respectively.

As for `N#Cc1ccc(Nc2nn([C@H]3CCCC[C@H]3C#N)cc2C(N)=O)cc1` (racemic) [Example 17-16, 1-[(1S,2R and 1R,2S)-2-cyanocyclohexyl]-3-[(4-cyanophenyl)amino]-1H-pyrazole-4-carboxamide], the values for the IC50 in test [1] and in test [2] were 11 nM and 36 nM, respectively.

Take `N#C[C@H]1CCCC[C@@H]1n1cc(C(N)=O)c(Nc2ccc(S(=O)(=O)C(F)(F)F)c(CO)c2)n1` (racemic) [Example 17-17, 1-[(1S,2S and 1R,2R)-2-cyanocyclohexyl]-3-({3-(hydroxymethyl)-4-[(trifluoromethyl)sulfonyl]phenyl}amino)-1H-pyrazole-4-carboxamide]: the IC50 in test [1] was found to be 1 nM; in test [2] it was 5 nM.

The values above are taken from patent publication US8962608B2, “Cycloalkylnitrile pyrazole carboxamides as janus kinase inhibitors” (Merck Sharp & Dohme Corp., priority 2011, dated 2015).
